This note sets out measurements from patent US8916702B2 (priority 2012, dated 2014).

Like-named read-outs stand apart in the source and are kept apart here.

In this assay the test system is HCV pseudoparticles (genotype 1a HCV E1 and E2 envelope, H77C isolate). The assay can be described thus: microbe, parasite or virus in culture. The class given is cell-based. The settings on record: Hepatitis C virus.
Where [1] appears, read: Huh-7, 48 h, read-out: Activity (EC50 class), HCV pseudoparticles, Huh7 cells, luciferase 2 days after infection, average of duplicates.
The mark [2] stands for this setting: Huh-7, 48 h, read-out: Activity (EC50 class), HCV pseudoparticle infection of Huh7 cells, luciferase 2 days after infection, EC50 expressed as class A/B.
The mark [3] stands for this setting: Huh-7, read-out: Activity (EC50 class), HCV pseudoparticles (genotype 1a, H77C) in Huh7 cells, EC50 expressed as class A/B.
[4] abbreviates: Huh-7, 48 h, HCV pseudoparticles (genotype 1a, H77C) in Huh7 cells, average of duplicate, luciferase 2 days after infection.
Setting [5] is: Huh-7, 48 h, HCV pseudoparticle infection of Huh7 cells, luciferase 2 days after infection, average of duplicates.

As usually defined, the EC50 is the midpoint of the concentration-response curve. Regarding `COC(=O)[C@H](CNC(=O)C(=O)Nc1cccc(Oc2ccccc2)c1)NC(=O)c1ccc(Nc2nc(NC3(c4ccc(Cl)cc4)CC3)nc(OCC(F)(F)F)n2)cc1` [Compound 3694], the EC50 is, setting by setting: (Huh-7, 48 h, HCV pseudoparticles, Huh7 cells, luciferase 2 days after infection, average of duplicates) 2.23 nM; under setting [1], 0.01 to 10 nM.
Consider `COC(=O)[C@H](CNC(=O)C(=O)Nc1ccn(C)n1)NC(=O)c1ccc(Nc2nc(NC3(c4ccc(Cl)cc4)CC3)nc(OCC(F)(F)F)n2)cc1` [Compound 1244], for which, under setting [2], the EC50 lay within 0.01 to 10 nM.
Consider `Cn1nccc1NC(=O)C(=O)NCC[C@H](NC(=O)c1ccc(Nc2nc(NC3(c4ccc(Cl)cc4)CC3)nc(OCC(F)(F)F)n2)cc1)C(=O)O` [Compound 1281], for which, under setting [2], the EC50 is 0.01 to 10 nM.
On to `Cc1ccc(NC(=O)C(=O)NCCNC(=O)c2ccc(Nc3nc(NC4(c5ccc(Cl)cc5)CC4)nc(OCC(F)(F)F)n3)cc2)cc1` [Compound 3371], for which the EC50 under setting [3] lay in the range of 0.01 to 10 nM.
With `CC(C)n1ccc(NC(=O)C(=O)NCC(C)(C)CNC(=O)c2ccc(Nc3nc(NC4(c5ccc(Cl)cc5)CC4)nc(OCC(F)(F)F)n3)cc2)n1` [Compound 3836], the concentration for a half-maximal effect (EC50) under setting [1] is 0.01 to 10 nM.
Turning to `O=C(NC[C@H](NC(=O)c1ccc(Nc2nc(NC3(c4ccc(Cl)cc4)CC3)nc(OCC(F)(F)F)n2)cc1)C(=O)O)C(=O)Nc1cccc(OC(F)(F)F)c1` [Compound 3749], under setting [1], the concentration for a half-maximal effect (EC50) lay in the range of 0.01 to 10 nM.
On to `CC(C)(CNC(=O)C(=O)Nc1ccc(C#N)c(Cl)c1)CNC(=O)c1ccc(Nc2nc(NC3(c4ccc(Cl)cc4)CC3)nc(OCC(F)(F)F)n2)cc1` [Compound 3374], for which the EC50 under setting [3] was 0.01 to 10 nM.
On to `O=C(N[C@H](CCNC(=O)c1ccc(Nc2nc(NC3(c4ccc(Cl)cc4)CC3)nc(OCC(F)(F)F)n2)cc1)C(=O)O)C(=O)N1CCCCC1` [Compound 3504], for which, under setting [3], the EC50 was in the range of 0.01 to 10 nM.
For `COc1cccc(NC(=O)C(=O)NCC(C)(C)CNC(=O)c2ccc(Nc3nc(NC4(c5ccc(Cl)cc5)CC4)nc(OCC(F)(F)F)n3)cc2)c1` [Compound 3008], the EC50 under setting [3] lay within 0.01 to 10 nM.
`CC(C)(CNC(=O)C(=O)Nc1ccnn1-c1ccccc1)CNC(=O)c1ccc(Nc2nc(NC3(c4ccc(Cl)cc4)CC3)nc(OCC(F)(F)F)n2)cc1` [Compound 3029]: the EC50 runs as follows: under setting [4], 0.071 nM; under setting [3], 0.01 to 10 nM.
For the compound `CC(C)(CNC(=O)C(N)=O)CNC(=O)c1ccc(Nc2nc(NC3(c4ccccc4F)CC3)nc(OCC(F)(F)F)n2)cc1` [Compound 3243], the EC50 under setting [3] lay within 0.01 to 10 nM.
Turning to `CC(C)(CNC(=O)C(=O)Nc1cccc(C(=O)c2cccc(N)c2)c1)CNC(=O)c1ccc(Nc2nc(NC3(c4ccc(Cl)cc4)CC3)nc(OCC(F)(F)F)n2)cc1` [Compound 3400], the half-maximal effective concentration (EC50) under setting [3] was in the range of 0.01 to 10 nM.
As for `O=C(NCC1CC1)C(=O)NC[C@H](NC(=O)c1ccc(Nc2nc(NC3(c4ccc(Cl)cc4)CC3)nc(OCC(F)(F)F)n2)cc1)C(=O)O` [Compound 1467], the EC50 under setting [2] was 0.01 to 10 nM.
Consider `COC(=O)[C@H](CNC(=O)C(=O)Nc1cccc(OC(F)(F)F)c1)NC(=O)c1ccc(Nc2nc(NC3(c4ccc(Cl)cc4)CC3)nc(OCC(F)(F)F)n2)cc1` [Compound 3693], for which, under setting [1], the EC50 was 0.01 to 10 nM.
Turning to `O=C(NC[C@H](NC(=O)c1ccc(Nc2nc(NC3(c4ccc(Cl)cc4)CC3)nc(OCC(F)(F)F)n2)cc1)C(=O)O)C(=O)NC1CCCCC1` [Compound 1174], the EC50 under setting [2] was 0.01 to 10 nM.
For the compound `COc1ccc(NC(=O)C(=O)NCC(C)(C)CNC(=O)c2ccc(Nc3nc(NC4(c5ccc(Cl)cc5)CC4)nc(OCC(F)(F)F)n3)cc2)c(C(F)(F)F)c1` [Compound 3456], the EC50 under setting [3] was in the range of 0.01 to 10 nM.
On to `CCOCCOc1ccc(NC(=O)C(=O)NCCC(NC(=O)c2ccc(Nc3nc(NC4(c5ccc(Cl)cc5)CC4)nc(OCC(F)(F)F)n3)cc2)C(=O)O)cc1` (centres unmarked) [Compound 3530], for which the EC50 under setting [3] lay within 0.01 to 10 nM.
Regarding `CC1CC(NC(=O)C(=O)NC[C@H](NC(=O)c2ccc(Nc3nc(NC4(c5ccc(Cl)cc5)CC4)nc(OCC(F)(F)F)n3)cc2)C(=O)O)CC(C)(C)C1` (some centres unmarked) [Compound 1088], the EC50 under setting [2] fell in the range of 0.01 to 10 nM.
`CC(C)(CNC(=O)C(=O)Nc1cccc(C(F)(F)F)c1)CNC(=O)c1ccc(Nc2nc(NC3(c4ccc(Cl)cc4)CC3)nc(OCC(F)(F)F)n2)cc1` [Compound 3019]: under setting [3], the EC50 lay within 0.01 to 10 nM.
As to `O=C(NCCC(NC(=O)c1ccc(Nc2nc(NC3(c4ccc(Cl)cc4)CC3)nc(OCC(F)(F)F)n2)cc1)C(=O)O)C(=O)Nc1ccc(-c2cc[nH]n2)cc1` (centres unmarked) [Compound 3531], the EC50 under setting [3] is 0.01 to 10 nM.
Consider `COC(=O)[C@H](CCNC(=O)C(=O)Nc1cccc(OC)c1)NC(=O)c1ccc(Nc2nc(NC3(c4ccc(Cl)cc4)CC3)nc(OCC(F)(F)F)n2)cc1` [Compound 1228], for which the EC50 under setting [2] lay in the range of 0.01 to 10 nM.
`CC(C)(CNC(=O)C(=O)Nc1cccc(CCC(=O)O)c1)CNC(=O)c1ccc(Nc2nc(NC3(c4ccc(Cl)cc4)CC3)nc(OCC(F)(F)F)n2)cc1` [Compound 1482]: the EC50 reads like this: under setting [5], 0.17 nM; under setting [2], 0.01 to 10 nM.
Regarding `CCOCCOc1ccc(NC(=O)C(=O)NC[C@H](NC(=O)c2ccc(Nc3nc(NC4(c5ccc(Cl)cc5)CC4)nc(OCC(F)(F)F)n3)cc2)C(=O)OC)cc1` [Compound 3192], under setting [3], the EC50 is 0.01 to 10 nM.
On to `O=C(NCC[C@H](NC(=O)c1ccc(Nc2nc(NC3(c4ccc(Cl)cc4)CC3)nc(OCC(F)(F)F)n2)cc1)C(=O)O)C(=O)NCC1(CN2CCOCC2)CC1` [Compound 1426], for which the EC50 under setting [2] lay within 0.01 to 10 nM.
In the case of `COC(=O)[C@H](CCNC(=O)C(=O)NCCc1ccc(F)cc1)NC(=O)c1ccc(Nc2nc(NC3(c4ccc(Cl)cc4)CC3)nc(OCC(F)(F)F)n2)cc1` [Compound 1315], the EC50 under setting [5] was 1.03 nM and the EC50 under setting [2] fell in the range of 0.01 to 10 nM.
Turning to `O=C(NCC1CC1)C(=O)NC1CCCC1CNC(=O)c1ccc(Nc2nc(NC3(c4ccc(Cl)cc4)CC3)nc(OCC(F)(F)F)n2)cc1` (centres unmarked) [Compound 1462], the EC50 under setting [2] fell in the range of 0.01 to 10 nM.
On to `COC(=O)[C@H](CCCNC(=O)C(N)=O)NC(=O)c1ccc(Nc2nc(NC3(c4ccc(Cl)cc4)CC3)nc(OCC(F)(F)F)n2)cc1` [Compound 1012, (S)-methyl 5-(2-amino-2-oxoacetamido)-2-(4-(4-(1-(4-chlorophenyl)cyclopropylamino)-6-(2,2,2-trifluoroethoxy)-1,3,5-triazin-2-ylamino)benzamido)pentanoate], for which the EC50 under setting [2] was in the range of 0.01 to 10 nM.
For `Cc1nc(-c2ccc(NC(=O)C(=O)NC[C@H](NC(=O)c3ccc(Nc4nc(NC5(c6ccc(Cl)cc6)CC5)nc(OCC(F)(F)F)n4)cc3)C(=O)O)cc2)cs1` [Compound 3275], the EC50 under setting [3] lay within 0.01 to 10 nM.
On to `COC(=O)[C@H](CCNC(=O)C(=O)Nc1ccnc(OC)c1)NC(=O)c1ccc(Nc2nc(NC3(c4ccc(Cl)cc4)CC3)nc(OCC(F)(F)F)n2)cc1` [Compound 1217], for which the EC50 under setting [2] is 0.01 to 10 nM.
For the compound `COC(=O)[C@H](CNC(=O)C(=O)Nc1ccc(Cl)nc1)NC(=O)c1ccc(Nc2nc(NC3(c4ccc(Cl)cc4)CC3)nc(OCC(F)(F)F)n2)cc1` [Compound 3683], the EC50 under setting [1] was 0.01 to 10 nM.
In the case of `Cn1ccnc1NC(=O)C(=O)NCC(C)(C)CNC(=O)c1ccc(Nc2nc(NC3(c4ccc(Cl)cc4)CC3)nc(OCC(F)(F)F)n2)cc1` [Compound 3379], the EC50 was 0.14 nM under setting [4] and 0.01 to 10 nM under setting [3].
For the compound `COC(=O)[C@H](CNC(=O)C(=O)Nc1ccccc1OC)NC(=O)c1ccc(Nc2nc(NC3(c4ccc(Cl)cc4)CC3)nc(OCC(F)(F)F)n2)cc1` [Compound 1256], the EC50 was 0.64 nM under setting [5] and 0.01 to 10 nM under setting [2].
Consider `COC(=O)[C@H](CCNC(=O)C(=O)Nc1ccc(N2CCOCC2)cc1)NC(=O)c1ccc(Nc2nc(NC3(c4ccc(Cl)cc4)CC3)nc(OCC(F)(F)F)n2)cc1` [Compound 3112], for which the EC50 under setting [3] was in the range of 0.01 to 10 nM.
As for `COC(=O)[C@H](CCNC(=O)C(=O)Nc1ccc(CN2CCCCC2)cc1)NC(=O)c1ccc(Nc2nc(NC3(c4ccc(Cl)cc4)CC3)nc(OCC(F)(F)F)n2)cc1` [Compound 3313], the EC50 under setting [3] fell in the range of 0.01 to 10 nM.
For the compound `O=C(NC[C@H](NC(=O)c1ccc(Nc2nc(NC3(c4ccc(Cl)cc4)CC3)nc(OCC(F)(F)F)n2)cc1)C(=O)O)C(=O)NC1CCCCCCC1` [Compound 1096], the EC50 under setting [2] lay within 0.01 to 10 nM.
Turning to `Cc1nccn1-c1ccc(NC(=O)C(=O)NCC[C@H](NC(=O)c2ccc(Nc3nc(NC4(c5ccc(Cl)cc5)CC4)nc(OCC(F)(F)F)n3)cc2)C(=O)O)cc1` [Compound 3541], under setting [3], the EC50 was 10 to 1000 nM.
On to `COC(=O)[C@H](CNC(=O)C(=O)Nc1cccc(CCc2ccccn2)c1)NC(=O)c1ccc(Nc2nc(NC3(c4ccc(Cl)cc4)CC3)nc(OCC(F)(F)F)n2)cc1` [Compound 3713], for which, under setting [1], the EC50 is 0.01 to 10 nM.
As to `CC(C)(CNC(=O)C(=O)Nc1cccc2ccccc12)CNC(=O)c1ccc(Nc2nc(NC3(c4ccc(Cl)cc4)CC3)nc(OCC(F)(F)F)n2)cc1` [Compound 3030], the EC50 under setting [3] is 0.01 to 10 nM.
As for `O=C(NC[C@H](NC(=O)c1ccc(Nc2nc(NC3(c4ccc(Cl)cc4)CC3)nc(OCC(F)(F)F)n2)cc1)C(=O)O)C(=O)NC1Cc2ccccc2C1` [Compound 1403], the EC50 under setting [2] lay within 0.01 to 10 nM.
With `CC(C)(C)OC(=O)N1CCCC(CNC(=O)C(=O)NCC[C@H](NC(=O)c2ccc(Nc3nc(NC4(c5ccc(Cl)cc5)CC4)nc(OCC(F)(F)F)n3)cc2)C(=O)O)C1` (some centres unmarked) [Compound 1204], the EC50 under setting [2] lay within 0.01 to 10 nM.
Turning to `O=C(NCC[C@H](NC(=O)c1ccc(Nc2nc(NC3(c4ccc(Cl)cc4)CC3)nc(OCC(F)(F)F)n2)cc1)C(=O)O)C(=O)NCC1CCCCCC1` [Compound 1207], the EC50 under setting [2] was in the range of 0.01 to 10 nM.
With `CC(CNC(=O)C(=O)NCc1ccc(F)cc1)CNC(=O)c1ccc(Nc2nc(NC3(c4ccc(Cl)cc4)CC3)nc(OCC(F)(F)F)n2)cc1` (centres unmarked) [Compound 3346], the EC50 is 0.067 nM under setting [4] and 0.01 to 10 nM under setting [3].
Regarding `CN(CCCNC(=O)c1ccc(Nc2nc(NC3(c4ccc(Cl)cc4)CC3)nc(OCC(F)(F)F)n2)cc1)C(=O)C(=O)Nc1cc(F)cc(F)c1` [Compound 3451], under setting [3], the EC50 fell in the range of 0.01 to 10 nM.
